Reference: patent US20120142667A1, “PYRIMIDINE DERIVATIVES AS ZAP-70 INHIBITORS” (priority 2009, published 2012)
Counter-ions that a name gives are not always drawn.

molecular target: T1, ZAP-70 (Homo sapiens, UniProt P43403); experiment: ZAP-70 kinobeads assay; assay type: binding; details: cell lysate
T1 construct: endogenous in cells; host or cells: cell lysate
T1 sequence (P43403 1-619): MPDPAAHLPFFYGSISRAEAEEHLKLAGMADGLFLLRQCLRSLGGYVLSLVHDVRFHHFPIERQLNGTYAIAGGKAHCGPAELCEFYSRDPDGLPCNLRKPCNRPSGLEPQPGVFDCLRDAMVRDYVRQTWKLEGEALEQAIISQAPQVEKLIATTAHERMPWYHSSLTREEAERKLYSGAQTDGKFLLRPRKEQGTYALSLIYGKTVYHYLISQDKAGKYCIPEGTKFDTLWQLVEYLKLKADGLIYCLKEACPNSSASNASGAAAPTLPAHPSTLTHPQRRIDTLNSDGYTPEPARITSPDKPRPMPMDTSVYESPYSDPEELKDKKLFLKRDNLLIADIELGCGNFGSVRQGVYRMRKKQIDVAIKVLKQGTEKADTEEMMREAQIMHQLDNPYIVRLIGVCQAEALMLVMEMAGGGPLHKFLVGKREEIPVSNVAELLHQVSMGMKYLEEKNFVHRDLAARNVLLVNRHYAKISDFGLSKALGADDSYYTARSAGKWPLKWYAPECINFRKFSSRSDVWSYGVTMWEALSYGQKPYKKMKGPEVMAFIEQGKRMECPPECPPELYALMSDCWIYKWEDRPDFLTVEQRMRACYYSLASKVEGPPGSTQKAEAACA
Description: The compounds of the present invention as described in the previous examples can be tested in the ZAP-70 kinobeads assay as described (EP-A 1862802 and WO-A 2007/137867). Briefly, test compounds (at various concentrations) and the affinity matrix with the immobilized aminopyrido-pyrimidine ligand 24 are added to cell lysate aliquots and allowed to bind to the proteins in the lysate sample. After the incubation time the beads with captured proteins are separated from the lysate. Bound proteins are then eluted and the presence ZAP-70 is detected and quantified using a specific antibody in a dot blot procedure and the Odyssey infrared detection system.

Row | SMILES | IC50 [nM]
1 | COc1ccc(Nc2nc(Nc3ccc(F)cc3C)ncc2Cl)c(NS(C)(=O)=O)c1 [Example 45, N-(2-(5-chloro-2-(4-fluoro-2-methylphenylamino)pyrimidin-4-ylamino)-5-methoxyphenyl)methanesulfonamide] | 100 to 1000
2 | COc1ccc(Nc2nc(Nc3ccc(F)c(F)c3OC)ncc2Cl)c(NS(C)(=O)=O)c1 [Example 46, N-(2-(5-chloro-2-(3,4-difluoro-2-methoxyphenylamino)pyrimidin-4-ylamino)-5-methoxyphenyl)methanesulfonamide] | 1000 to 10000
3 | COc1ccc(Nc2nc(Nc3cc(OC)c(C)cc3OC)ncc2Cl)c(NS(C)(=O)=O)c1 [Example 47, N-(2-(5-chloro-2-(2,5-dimethoxy-4-methylphenylamino)pyrimidin-4-ylamino)-5-methoxyphenyl)methanesulfonamide] | 100 to 1000
4 | COc1ccc(Nc2nc(Nc3ccccc3F)ncc2Cl)c(NS(C)(=O)=O)c1 [Example 48, N-(2-(5-chloro-2-(2-fluorophenylamino)pyrimidin-4-ylamino)-5-methoxyphenyl)methanesulfonamide] | 100 to 1000
5 | COc1ccc(Nc2nc(Nc3cc(C)ccc3F)ncc2Cl)c(NS(C)(=O)=O)c1 [Example 49, N-(2-(5-chloro-2-(2-fluoro-5-methylphenylamino)pyrimidin-4-ylamino)-5-methoxyphenyl)methanesulfonamide] | 100 to 1000
6 | COc1ccc(Nc2nc(Nc3ccccc3C)ncc2Cl)c(NS(C)(=O)=O)c1 [Example 50, N-(2-(5-chloro-2-(o-tolylamino)pyrimidin-4-ylamino)-5-methoxyphenyl)methanesulfonamide hydrochloride] | 100 to 1000
7 | COc1ccc(Nc2nc(Nc3ccccc3OC)ncc2Cl)c(NS(C)(=O)=O)c1 [Example 51, N-(2-(5-chloro-2-(2-methoxyphenylamino)pyrimidin-4-ylamino)-5-methoxyphenyl)methanesulfonamide hydrochloride] | 100 to 1000
8 | COc1ccc(Nc2nc(Nc3cccc(C)c3C)ncc2Cl)c(NS(C)(=O)=O)c1 [Example 52, N-(2-(5-chloro-2-(2,3-dimethylphenylamino)pyrimidin-4-ylamino)-5-methoxyphenyl)methanesulfonamide] | 100 to 1000
9 | COc1ccc(Nc2nc(Nc3cc(OC)c(OC)cc3Cl)ncc2Cl)c(NS(C)(=O)=O)c1 [Example 53, N-(2-(5-chloro-2-(2-chloro-4,5-dimethoxyphenylamino)pyrimidin-4-ylamino)-5-methoxyphenyl)methanesulfonamide] | 100 to 1000
10 | COc1ccc(Nc2nc(Nc3cccc(OC)c3C)ncc2Cl)c(NS(C)(=O)=O)c1 [Example 54, N-(2-(5-chloro-2-(3-methoxy-2-methylphenylamino)pyrimidin-4-ylamino)-5-methoxyphenyl)methanesulfonamide] | 100 to 1000
11 | COc1ccc(Nc2nc(Nc3cc(C)ccc3OC)ncc2Cl)c(NS(C)(=O)=O)c1 [Example 56, N-(2-(5-chloro-2-(2-methoxy-5-methylphenylamino)pyrimidin-4-ylamino)-5-methoxyphenyl)methanesulfonamide] | 100 to 1000
12 | COc1ccc(Nc2nc(Nc3cc(OC)c(F)cc3F)ncc2Cl)c(NS(C)(=O)=O)c1 [Example 58, N-(2-(5-chloro-2-(2,4-difluoro-5-methoxyphenylamino)pyrimidin-4-ylamino)-5-methoxyphenyl)methanesulfonamide hydrochloride] | 100 to 1000
13 | COc1ccc(Nc2nc(Nc3ccc(C)cc3C)ncc2Cl)c(NS(C)(=O)=O)c1 [Example 59, N-(2-(5-chloro-2-(2,4-dimethylphenylamino)pyrimidin-4-ylamino)-5-methoxyphenyl)methanesulfonamide hydrochloride] | 100 to 1000
14 | COc1ccc(Nc2nc(Nc3cccc(F)c3F)ncc2Cl)c(NS(C)(=O)=O)c1 [Example 60, N-(2-(5-chloro-2-(2,3-difluorophenylamino)pyrimidin-4-ylamino)-5-methoxyphenyl)methanesulfonamide hydrochloride] | 1000 to 10000
15 | COc1ccc(Nc2nc(Nc3cccc(F)c3OC)ncc2Cl)c(NS(C)(=O)=O)c1 [Example 61, N-(2-(5-chloro-2-(3-fluoro-2-methoxyphenylamino)pyrimidin-4-ylamino)-5-methoxyphenyl)methanesulfonamide hydrochloride] | 1000 to 10000
16 | COc1ccc(Nc2nc(Nc3ccc(C)cc3OC)ncc2Cl)c(NS(C)(=O)=O)c1 [Example 62, N-(2-(5-chloro-2-(2-methoxy-4-methylphenylamino)pyrimidin-4-ylamino)-5-methoxyphenyl)methanesulfonamide hydrochloride] | 100 to 1000
17 | COc1ccc(Nc2nc(Nc3cc(OCCN)ccc3F)ncc2Cl)c(NS(C)(=O)=O)c1 [Example 66, N-(2 (2 (5 (2 aminoethoxy)-2-fluorophenylamino)-5-chloropyrimidin-4-ylamino)-5-methoxyphenyl)methanesulfonamide] | 100 to 1000
18 | COc1ccc(Nc2nc(Nc3cnc(O)cc3OC)ncc2Cl)c(NS(C)(=O)=O)c1 [Example 78, N-(2-(5-chloro-2-(6-hydroxy-4-methoxypyridin-3-ylamino)pyrimidin-4-ylamino)-5-methoxyphenyl)methanesulfonamide] | ≤ 100
19 | COc1ccc(Nc2nc(Nc3cncc(OC)c3OC)ncc2Cl)c(NS(C)(=O)=O)c1 [Example 81, N-(2-(5-chloro-2-(4,5-dimethoxypyridin-3-ylamino)pyrimidin-4-ylamino)-5-methoxyphenyl)methanesulfonamide] | 1000 to 10000
20 | COc1ccc(Nc2nc(Nc3c[nH]c(=O)cc3C)ncc2Cl)c(NS(C)(=O)=O)c1 [Example 82, N-(2-(5-chloro-2-(4-methyl-6-oxo-1,6-dihydropyridin-3-ylamino)pyrimidin-4-ylamino)-5-methoxyphenyl)methanesulfonamide] | 100 to 1000
21 | COc1ccc(Nc2nc(Nc3ccc(OCC(N)=O)cc3C)ncc2Cl)c(NS(C)(=O)=O)c1 [Example 90, 2-(4-((5-chloro-4-((4-methoxy-2-(methylsulfonamido)phenyl)amino)pyrimidin-2-yl)amino)-3-methylphenoxy)acetamide] | ≤ 100
22 | COc1ccc(Nc2nc(Nc3cc(OC)cc(CO)c3OC)ncc2Cl)c(NS(C)(=O)=O)c1 [Example 96, N-(2-((5-chloro-2-((3-(hydroxymethyl)-2,5-dimethoxyphenyl)amino)pyrimidin-4-yl)amino)-5-methoxyphenyl)methanesulfonamide] | 100 to 1000
23 | COc1ccc(Nc2nc(Nc3cccc(OCCC(F)(F)F)c3C)ncc2Cl)c(NS(C)(=O)=O)c1 [Example 98, N-(2-((5-chloro-2-((2-methyl-3-(3,3,3-trifluoropropoxy)phenyl)amino)pyrimidin-4-yl)amino)-5-methoxyphenyl)methanesulfonamide] | 100 to 1000
24 | COc1ccc(Nc2nc(Nc3nc(OC)ccc3Cl)ncc2Cl)c(NS(C)(=O)=O)c1 [Example 99, N-(2-(5-chloro-2-(3-chloro-6-methoxypyridin-2-ylamino)pyrimidin-4-ylamino)-5-methoxyphenyl)methanesulfonamide] | 1000 to 10000
25 | COc1ccc(Nc2nc(Nc3cc(OC)c(CC(=O)O)cc3OC)ncc2Cl)c(NS(C)(=O)=O)c1 [Example 100, 2-(4-((5-chloro-4-((4-methoxy-2-(methylsulfonamido)phenyl)amino)pyrimidin-2-yl)amino)-2,5-dimethoxyphenyl)acetic acid] | ≤ 100
26 | COc1ccc(OCCO)cc1Nc1ncc(F)c(Nc2ccccc2NS(C)(=O)=O)n1 [Example 102, N-(2-(5-fluoro-2-(5-(2-hydroxyethoxy)-2-methoxyphenylamino)pyrimidin-4-ylamino)phenyl)methanesulfonamide] | 1000 to 10000
27 | COc1ccc(OCCO)cc1Nc1ncc(F)c(Nc2cccc(C)c2NS(C)(=O)=O)n1 [Example 103, N-(2-(5-fluoro-2-(5-(2-hydroxyethoxy)-2-methoxyphenylamino)pyrimidin-4-ylamino)-6-methylphenyl)methanesulfonamide] | 1000 to 10000
28 | COc1ccc(Nc2nc(Nc3cc(OCC(C)(C)O)ccc3OC)ncc2Cl)c(NS(C)(=O)=O)c1 [Example 104, N-(2-((5-chloro-2-((5-(2-hydroxy-2-methylpropoxy)-2-methoxyphenyl)amino)pyrimidin-4-yl)amino)-5-methoxyphenyl)methanesulfonamide] | 1000 to 10000
29 | COc1ccc(OCCO)cc1Nc1ncc(Cl)c(Nc2ccccc2NS(C)(=O)=O)n1 [Example 109, N-(2-(5-chloro-2-(5-(2-hydroxyethoxy)-2-methoxyphenylamino)pyrimidin-4-ylamino)phenyl)methanesulfonamide] | 100 to 1000
30 | COc1ccc(Nc2nc(Nc3cc(OCCO)c(OC)cc3C)ncc2Cl)c(NS(C)(=O)=O)c1 [Example 114, N-(2-(5-chloro-2-(5-(2-hydroxyethoxy)-4-methoxy-2-methylphenylamino)pyrimidin-4-ylamino)-5-methoxyphenyl)methanesulfonamide] | 1000 to 10000
